Measurements taken from patent US6566371B2, “Intraperitoneal administration of adenosine for the treatment of prevention of gastrointestinal of systemic diseases” (University of Pittsburgh, priority 2000, dated 2003).
Like-named read-outs stand apart in the source and are kept apart here.

What was measured:
[1] = Microdialysis of mesenteric vein and aortic arch during continuous peritoneal lavage with adenosine or AMP (Example 2)
Experimental: (§1) In all the examples adult male Sprague-Dawley rats were purchased from Charles River Laboratories (Wilmington, Mass.) and maintained in the University of Pittsburgh Animal Facility (Pittsburgh, Pa.). Rats were provided free access to Prolab Isopro RMH 3000 rodent diet (PMI Nutrition Intl., Richmond, Ind.) and tap water. Light cycle, relative humidity and room temperature were 7:00 AM to 7:00 PM, 55% and 22° C., respectively. Animals weighed 357±11 (mean±SEM) grams at the time of study.
(§2) Rats (n=5) were anesthetized and body temperature monitored and maintained as described for Example 1. The trachea was cannulated with PE-240 and a PE-50 catheter was inserted into the right jugular vein and an intravenous infusion of 0.9% saline was initiated at 50 μl/min. A femoral artery catheter (PE-50) was inserted and was connected to a digital blood pressure analyzer for continuous measurement of MABP and heart rate. Next, microdialysis probes (CMA/20 microdialysis probe 4 mm, Bioanalytical Systems, Inc., West Lafayette, Ind.) were inserted into the aortic arch (via the left carotid artery) and mesenteric vein. Microdialysis probes were perfused with 0.9% saline at 2 μl/min, and the dialysate exiting the probes was collected in a freezing apparatus. As in Example 1, a basin was constructed from the abdominal wall to create a bowl containing the viscera. However, unlike Example 1, instead of intermittent lavage with fresh solutions, the abdominal basin was continuously perfused with Tyrode's solution (5 ml/min) (Mi, Z., et al., J. Pharmacol. Exp. Ther. 287:926 (1998), the disclosure of which is incorporated herein by reference) that was maintained at 37° C. by a heated water bath. Thus, the viscera were submerged completely in Tyrode's solution that was constantly being replaced. After a 20-minute stabilization period, dialysate from the microdialysis probes was collected for 20 minutes. Next, the Tyrode's solution perfusing the peritoneal cavity was switched to prewarmed Tyrode's containing 10^−5 M adenosine (Sigma). After 10 minutes, the dialysate was collected for another 20 minutes. This procedure was repeated two more times as the concentration of adenosine was increased to 10^−4 M and finally to 10^−3 M. To determine whether AMP would behave as a “prodrug” for the delivery of adenosine, after a 20 minute washout period, the entire protocol was repeated with AMP (10^−5 M, 10^−4 M and 10^−3 M) (Sigma).
(§3) Statistical Analysis: Data were analyzed in this example by repeated measures 1-factor analysis of variance. […] Statistical analyses were conducted with NCSS software (Version 6.0; Kaysville, Utah), and the criterion of significance was p<0.05.
(§4) Sample Analysis: Levels of adenosine and its metabolites, inosine, hypoxanthine and xanthine, in the dialysate samples in this example were measured using an Isco (Lincoln, Nebr.) high-pressure liquid chromatographic system (pump model 2350, gradient programmer model 2360, 4.6×250-mm C18 column) with UV detection as described by Mi, Z., et al., J. Pharmacol. Exp. Ther. 273:728 (1995). The chromatography data system was JCL 6000 for Windows (Jones Chromatography LTD., Lakewood, Colo.).

[2] = test system: rats subjected to hemorrhagic shock; assay: Hemorrhagic shock and resuscitation with continuous peritoneal lavage (Example 3); type: in vivo, Sprague-Dawley rats
Experimental: The methods of the present invention are illustrated in more detail below. […] In a second study, microdialysis probes were placed in the mesenteric vein and aortic arch of rats, and the peritoneal cavity was continuously ravaged with adenosine or AMP solutions. In a third study, rats were subjected to hemorrhagic shock (2.75 ml of blood removed per 100 grams of body weight over a 15 minute period) for two hours, followed by volume resuscitation for one hour and observation for 72 hours. Rats received peritoneal lavage with adenosine or vehicle (0.9% saline) beginning 20 minutes after blood withdrawal and continuing through the one hour resuscitation period.
Hemorrhagic shock was induced by removing 2.75 ml of blood per 100 grams of body weight over a 15 minute period. Two hours after blood withdrawal, the animals were resuscitated by reinfusing the withdrawn blood and restoring and maintaining a normal blood pressure for one hour by infusing Ringer's solution (Baxter, Deerfield, Ill.) as needed. Beginning 20 minutes after blood withdrawal and continuing for one hour after reinfusion of the withdrawn blood, rats received either continuous peritoneal lavage with adenosine (10^−4 M) or 0.90% saline.

[3] = rat, in vivo
Experimental: as §1, §2, §3, §4

[4] = test system: anesthetized rats with mesenteric vasoconstriction induced by angiotensin II plus methoxamine; assay: Intraperitoneal lavage with adenosine during intramesenteric artery infusion of angiotensin II plus methoxamine (Example 1); type: in vivo, Sprague-Dawley rats
[5] = continuous peritoneal lavage with 10^-3 M
[6] = continuous peritoneal lavage with adenosine 10^-4 M
[7] = Group 2, period 7, 10^-3 M adenosine in peritoneal lavage fluid

In the case of `Nc1ncnc2c1ncn2[C@@H]1O[C@H](COP(=O)(O)O)[C@@H](O)[C@H]1O` [AMP, adenosine-5′-monophosphate], the “purine levels in the aorta” value [1, 5] is reported as “not in the aorta”, the “purine levels in the mesenteric vein” value [1, 5] is reported as “increased purine levels in the mesenteric vein” and the MABP ([1]; during 10^-3 M in continuous peritoneal lavage, basal 113±5 (adenosine), 112±4 (AMP), not significantly affected) is reported as 117±7 mm Hg. The heart rate ([1]; during 10^-3 M in continuous peritoneal lavage, basal 351±15 (adenosine), 357±17 (AMP), not significantly affected) was 366±22 beats/min.
With `Nc1ncnc2c1ncn2[C@@H]1O[C@H](CO)[C@@H](O)[C@H]1O` [adenosine] the “arterial pH vs vehicle-treated group” value [2, 6] was “significantly (p<0.05) higher”, the “blood urea nitrogen vs vehicle-treated group” value [2, 6] was “significantly (p<0.05) lower” and the “plasma level of lactate vs vehicle-treated group” value [2, 6] was “significantly (p<0.05) lower”. For the same compound, the “plasma level of potassium vs vehicle-treated group” value [2, 6] was “significantly (p<0.05) lower”, the “survival to 72 hours” value ([2]; continuous peritoneal lavage with adenosine 10^-4 M, vehicle 4 of 10, p<0.05) was 9 of 10 and the “MABP and heart rate vs vehicle-treated group” value ([2]; during hemorrhagic shock and resuscitation, adenosine 10^-4 M lavage) was “similar”. For the same compound, the “adenosine level in dialysate exiting mesenteric vein microdialysis catheter” value ([3]; male, Sprague-Dawley) was 2.17 ± 0.60 µM, the “hypoxanthine level in dialysate exiting mesenteric vein microdialysis catheter” value ([3]; male, Sprague-Dawley) was 0.18 ± 0.04 µM and the “inosine level in dialysate exiting mesenteric vein microdialysis catheter” value ([3]; male, Sprague-Dawley) was 1.03 ± 0.32 µM. The “xanthine level in dialysate exiting mesenteric vein microdialysis catheter” value ([3]; male, Sprague-Dawley) was 0.26 ± 0.06 µM, the MABP [3] was 108±4 mm Hg and the heart rate [3] was 362±14 beats/min. The “levels of adenosine, inosine, hypoxanthine or xanthine in the aorta (dialysate)” value [3] was “did not significantly alter”, the “levels of adenosine, inosine, hypoxanthine or xanthine in the mesenteric vein (dialysate)” value [3] was “did not significantly alter” and the heart rate ([4]; Group 2, increasing adenosine 10^-7 to 10^-3 M in lavage) was “not significantly different among the seven experimental periods”. The “MBF compared with period 1 (no infusion, no adenosine)” value [4, 7] was “not significantly different than the MBF during period 1”, the “MBF compared with period 2 (vasoconstrictors, no adenosine)” value [4, 7] was “significantly greater than the MBF during period 2” and the “mesenteric blood flow (MBF)” value ([4]; Group 2, periods 3-6, adenosine 10^-7 M to 10^-4 M in peritoneal lavage fluid, intermittent lavage) was “remained significantly depressed”. For the same compound, the “heart rate (bradycardia)” value ([4]; Group 3, 10^-3 M adenosine in peritoneal lavage fluid) was “did not cause bradycardia”, the MABP ([4]; Group 3, 10^-3 M adenosine, period 4 and period 5) was “very slight and transient increase” and the “MBF compared with period 1” value ([4]; Group 3, by period 7, fixed 10^-3 M adenosine in peritoneal lavage fluid) was “no longer significantly different compared with experimental period 1”. For the same compound, the “MBF compared with period 2” value ([4]; Group 3, periods 3-7, fixed 10^-3 M adenosine in peritoneal lavage fluid) was “significantly greater than MBF during period 2” and the “mesenteric blood flow (summary)” value ([4]; peritoneal lavage with adenosine, p<0.05) was “normalized mesenteric blood flow”.
